Among the data in US9499495B2, “Quinazolines and azaquinazolines as dual inhibitors of RAS/RAF/MEK/ERK and PI3K/AKT/PTEN/mTOR pathways” (Asana Biosciences, LLC, priority 2013, dated 2016) are IC50 values, retold here.

Assay [1] concerns RKO cells. Kind of assay: XTT assay for cell viability, RKO cells. Type of assay: cell-based. The settings on record: Homo sapiens, 72 h. The method in brief: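 RKO and A375 cells seeded at 1000-2000/well overnight, then exposed to compound for 72 h at 37° C., 5% CO2. XTT (1 mg/ml)/PMS (25 μM) added for 2-3 h; absorbance at 450 nm. Growth relative to DMSO control (100%); GI50 from sigmoidal dose-response fit.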
Background: Formazan colour is commonly taken as a measure of viable cells.

In assay [2] the target is T1, B-RAFV600E (Homo sapiens, UniProt P15056, V600E).
T1 construct: purchased Millipore, USA 14-557
Nature of the assay: B-RAFV600E radiometric assay. Type of assay: biochemical. To be noted: read-out: Kinase assay B-Raf. An outline of the steps: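 B-RAFV600E was preincubated 45 min at rt with compound in 1% DMSO. MEK-K97M (0.5 μg), 5 μM final cold ATP and [γ-32P]ATP were then added for 2 h at rt. Phosphorylated MEK was captured on P81 paper and scintillation-counted; IC50 came from a sigmoidal dose-response fit.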

Assay [3] deals with pS6RP in RKO cells. Nature of the assay: In Cell Western (ICW) assay, pS6RP in RKO cells. Type of assay: cell-based. To be noted: Homo sapiens, 3 h treatment. How it is done:
Cell lines A375, A2058 and RKO obtained from the ATCC as provided above, were grown, and after attaining ˜80% confluency were trypsinized, centrifuged and resuspended in fresh media. The cells were seeded at the specified density (20,000 to 50,000) in a 96-well format black-well clear bottom plate (Corning) and incubated overnight at 37° C. in a 5% CO2 incubator. The next day, compound dilutions of test compounds were prepared in 100% DMSO followed by dilutions in respective media. Treatment of test compounds was performed for 3 h at 37° C. in 5% CO2 incubator. Following 3 h drug treatment, the conditional media was discarded and the cells were washed once with cPBS (PBS containing 0.1% magnesium chloride hexahydrate and 0.1% anhydrous calcium chloride) and fixed with 4% paraformaldehyde in cPBS for 1 h at rt. After fixing, the cells were given three washes using cPBST (cPBS containing 0.1% Triton™ X-100 reagent) and then blocked using blocking solution (5% skimmed milk powder or 5% BSA prepared in cPBST) for 2 h at rt with shaking at 300 rpm. The cells were again washed thrice with cPBST and incubated with primary antibody phospho-p44/42 MAPK(Erk1/2)(Thr202/204) antibody (Cell Signaling, Catalog # 9101L), phospho S6 ribosomal protein (Cell Signaling, Catalog #4858L), phospho AKT (Thr 308) (Cell Signaling, Catalog #9275) or phospho AKT (Ser 473) (Cell Signaling, Catalog #4060L) in specified dilutions (1:500-1:2500), prepared in respective blocking solutions, in a racker overnight at 4° C. The next day, the cells were washed with 1× Delfia® wash buffer (4×1 wash) and incubated with secondary antibody (Delfia®-Eu-N1 labeled anti-rabbit antibody; PerkinElmer, Catalog #AD0105; dilutions: 1:2000 to 1:6000 in Delfia® assay buffer (PerkinElmer, Catalog #1244-111)) for 2 h at rt in the dark at 300 rpm. The cells were then given four washes with 1× Delfia® wash buffer and incubated with Wallac Delfia® Enhancement solution (100 μL; PerkinElmer, Catalog #1244-105) for 20 min at rt in the dark at 300 rpm. The fluorescence emission was then read at 615 nm with an excitation wavelength of 340 nm using a Victor V5 Fluorometer (Perkin Elmer, US). The cells were then washed once with 1×cPBS and incubated with 100 μL of 0.5 mg/mL of Hoechst 33258 dye prepared in cPBS and read at 460 nm with 355 nm excitation, thereby evaluating the correction factor.
The % inhibition for the test compounds of formula (I) (new chemical entities (NCEs)) was calculated keeping DMSO control as 0% and the IC50 values were determined using sigmoidal dose response curve fit in GraphPad Prism® v5 software.

The test system of assay [4] is pERK in RKO cells. Kind of assay: In Cell Western (ICW) assay, pERK in RKO cells. Type of assay: cell-based. The settings on record: Homo sapiens, 3 h treatment. An outline of the steps:
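RKO or A375 cells were exposed to compounds for 3 h at 37 °C, then fixed and stained in-cell with antibodies to pERK1/2 (T202/Y204), pS6RP or pAKT T308, followed by a Eu-labelled secondary. Time-resolved fluorescence (340/615 nm) was normalized to Hoechst, and IC50 values were fitted sigmoidally against DMSO as 0% inhibition.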

T1 sequence (P15056 416-766 V600E limits assumed): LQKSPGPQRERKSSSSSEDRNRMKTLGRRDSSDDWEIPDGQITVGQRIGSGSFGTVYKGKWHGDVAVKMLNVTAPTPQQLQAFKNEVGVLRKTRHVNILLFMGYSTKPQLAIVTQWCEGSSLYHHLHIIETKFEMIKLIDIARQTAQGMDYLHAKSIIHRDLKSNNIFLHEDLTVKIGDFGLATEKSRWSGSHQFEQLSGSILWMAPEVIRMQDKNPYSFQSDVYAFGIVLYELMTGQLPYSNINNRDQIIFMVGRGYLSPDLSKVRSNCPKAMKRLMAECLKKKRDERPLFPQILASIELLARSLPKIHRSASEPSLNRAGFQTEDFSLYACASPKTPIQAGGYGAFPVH

As for `CCCS(=O)(=O)Nc1cccc(-c2ccc3nc(-c4cnc(N)nc4)nc(N4CCOCC4)c3n2)c1F` [Example 7, N-(3-(2-(2-aminopyrimidin-5-yl)-4-morpholinopyrido[3,2-d]pyrimidin-6-yl)-2-fluorophenyl)propane-1-sulfonamide], the IC50 in assay [1] and in assay [2] was 100 to 1000 nM throughout.

With `COc1cc2nc(-c3cnc(N)nc3)nc(N3CCOCC3)c2cc1-c1cccc(NS(=O)(=O)CCCF)c1F` [Example 11, N-(3-(2-(2-aminopyrimidin-5-yl)-7-methoxy-4-morpholinoquinazolin-6-yl)-2-fluorophenyl)-3-fluoropropane-1-sulfonamide], the IC50 was 100 to 1000 nM in assay [3], 100 to 1000 nM in assay [1] and 1 to 100 nM in assay [2].

Consider `CNC(=O)Nc1ccc(-c2nc(N3CCOCC3)c3cc(-c4cccc(NS(=O)(=O)CCCF)c4F)cc(OC)c3n2)cn1` [Example 39, 3-fluoro-N-(2-fluoro-3-(8-methoxy-2-(6-(3-methylureido)pyridin-3-yl)-4-morpholinoquinazolin-6-yl)phenyl)propane-1-sulfonamide], for which the IC50 in assay [2] lay within 1 to 100 nM.

For the compound `COc1cc(-c2cccc(NS(=O)(=O)CCCF)c2F)cc2c(N3CCOC[C@H]3C)nc(-c3cnc(N)nc3)nc12` [Example 43, (R)-N-(3-(2-(2-aminopyrimidin-5-yl)-8-methoxy-4-(3-methylmorpholino)quinazolin-6-yl)-2-fluorophenyl)-3-fluoropropane-1-sulfonamide], the IC50 in assay [3] fell in the range of 100 to 1000 nM; in assay [1], 100 to 1000 nM; in assay [2], 1 to 100 nM; in assay [4], 1 to 100 nM.

`Nc1ncc(-c2nc(N3CCOCC3)c3cc(-c4cccc(NS(=O)(=O)CCCF)c4F)cc(N4CCOCC4)c3n2)cn1` [Example 69, N-(3-(2-(2-aminopyrimidin-5-yl)-4,8-dimorpholinoquinazolin-6-yl)-2-fluorophenyl)-3-fluoropropane-1-sulfonamide]: the IC50 in assay [2] fell in the range of 1 to 100 nM.

Consider `CCCS(=O)(=O)Nc1cccc(-c2ccc3nc(-c4ccc(N)nc4)nc(N4CCOCC4)c3n2)c1F` [Example 86, N-(3-(2-(6-aminopyridin-3-yl)-4-morpholinopyrido[3,2-d]pyrimidin-6-yl)-2-fluorophenyl)propane-1-sulfonamide], for which the IC50 in assay [1] and in assay [2] was 100 to 1000 nM throughout.

For the compound `Cc1cc(-c2nc(N3CCOCC3)c3nc(-c4cccc(NS(=O)(=O)CCCF)c4F)ccc3n2)cnc1N` [Example 90, N-(3-(2-(6-amino-5-methylpyridin-3-yl)-4-morpholinopyrido[3,2-d]pyrimidin-6-yl)-2-fluorophenyl)-3-fluoropropane-1-sulfonamide], the IC50 in assay [2] lay in the range of 1 to 100 nM.

Take `Nc1ccc(-c2nc(N3CCOCC3)c3nc(-c4cccc(NS(=O)(=O)c5c(F)cccc5F)c4F)ccc3n2)cn1` [Example 95, N-(3-(2-(6-aminopyridin-3-yl)-4-morpholinopyrido[3,2-d]pyrimidin-6-yl)-2-fluorophenyl)-2,6-difluorobenzenesulfonamide]: the IC50 in assay [1] lay in the range of 1000 to 10000 nM; in assay [2], 1 to 100 nM.

Take `C[C@@H]1COCCN1c1nc(-c2ccc(N)nc2)nc2ccc(-c3cccc(NS(=O)(=O)CCCF)c3F)nc12` [Example 96, (R)-N-(3-(2-(6-aminopyridin-3-yl)-4-(3-methylmorpholino)pyrido[3,2-d]pyrimidin-6-yl)-2-fluorophenyl)-3-fluoropropane-1-sulfonamide]: the IC50 in assay [3] was 100 to 1000 nM; in assay [1], 100 to 1000 nM; in assay [2], 1 to 100 nM; in assay [4], 1 to 100 nM.

Turning to `C[C@@H]1COCCN1c1nc(-c2cnc(N)nc2)nc2ccc(-c3cccc(NS(=O)(=O)CCCF)c3F)nc12` [Example 97, (R)-N-(3-(2-(2-aminopyrimidin-5-yl)-4-(3-methylmorpholino)pyrido[3,2-d]pyrimidin-6-yl)-2-fluorophenyl)-3-fluoropropane-1-sulfonamide], the IC50 in assay [3] lay within 100 to 1000 nM; in assay [1], 100 to 1000 nM; in assay [2] it was 1 to 100 nM.

For the compound `O=S(=O)(CCCF)Nc1cccc(-c2ccc3nc(-c4ccc(NCCO)nc4)nc(N4CCOCC4)c3n2)c1F` [Example 99, 3-fluoro-N-(2-fluoro-3-(2-(6-((2-hydroxyethyl)amino)pyridin-3-yl)-4-morpholinopyrido[3,2-d]pyrimidin-6-yl)phenyl)propane-1-sulfonamide], the IC50 lay in the range of 100 to 1000 nM in assay [3], 100 to 1000 nM in assay [1], 1 to 100 nM in assay [2] and 1 to 100 nM in assay [4].

In the case of `Nc1cc(F)c(-c2nc(N3CCOCC3)c3nc(-c4cccc(NS(=O)(=O)CCCF)c4F)ccc3n2)cn1` [Example 102, N-(3-(2-(6-amino-4-fluoropyridin-3-yl)-4-morpholinopyrido[3,2-d]pyrimidin-6-yl)-2-fluorophenyl)-3-fluoropropane-1-sulfonamide], the IC50 lay in the range of 100 to 1000 nM in assay [3], 100 to 1000 nM in assay [1], 1 to 100 nM in assay [2] and 100 to 1000 nM in assay [4].

For `Nc1cc(C(F)(F)F)c(-c2nc(N3CCOCC3)c3nc(-c4cccc(NS(=O)(=O)c5c(F)cccc5F)c4F)ccc3n2)cn1` [Example 106, N-(3-(2-(6-amino-4-(trifluoromethyl)pyridin-3-yl)-4-morpholinopyrido[3,2-d]pyrimidin-6-yl)-2-fluorophenyl)-2,6-difluorobenzenesulfonamide], the IC50 in assay [2] was in the range of 1 to 100 nM.

Take `O=S(=O)(CCCF)Nc1cccc(-c2ccc3nc(-c4ccc(NCCCO)nc4)nc(N4CCOCC4)c3n2)c1F` [Example 111, 3-fluoro-N-(2-fluoro-3-(2-(6-((3-hydroxypropyl)amino)pyridin-3-yl)-4-morpholinopyrido[3,2-d]pyrimidin-6-yl)phenyl)propane-1-sulfonamide]: the IC50 in assay [2] was in the range of 1 to 100 nM.

As to `Cc1cc(-c2cccc(NS(=O)(=O)CCCF)c2F)cc2c(N3CCOCC3)nc(-c3cnc(N)nc3)nc12` [Example 116, N-(3-(2-(2-aminopyrimidin-5-yl)-8-methyl-4-morpholinoquinazolin-6-yl)-2-fluorophenyl)-3-fluoropropane-1-sulfonamide], the IC50 in assay [2] lay within 1 to 100 nM.

`C[C@H]1COCCN1c1nc(-c2cnc(N)cc2F)nc2ccc(-c3cccc(NS(=O)(=O)CCCF)c3F)nc12` [Example 129, (S)-N-(3-(2-(6-amino-4-fluoropyridin-3-yl)-4-(3-methylmorpholino)pyrido[3,2-d]pyrimidin-6-yl)-2-fIuorophenyl)-3-fluoropropane-1-sulfonamide]: the IC50 in assay [2] fell in the range of 1 to 100 nM.

For the compound `COc1cc(-c2cccc(NS(=O)(=O)CCCF)c2F)cc2c(N3CCOC[C@H]3C)nc(-c3cnc(N)c(F)c3)nc12` [Example 134, (R)-N-(3-(2-(6-amino-5-fluoropyridin-3-yl)-8-methoxy-4-(3-methylmorpholino)quinazolin-6-yl)-2-fluorophenyl)-3-fluoropropane-1-sulfonamide], the IC50 in assay [3] lay in the range of 1 to 100 nM; in assay [1], 100 to 1000 nM; in assay [2], 1 to 100 nM; in assay [4] it was 1 to 100 nM.

Take `COc1cc(-c2cccc(NS(=O)(=O)CCCF)c2F)cc2c(N3CCOC[C@H]3C)nc(-c3cnc(N)cc3F)nc12` [Example 135, (R)-N-(3-(2-(6-amino-4-fluoropyridin-3-yl)-8-methoxy-4-(3-methylmorpholino)quinazolin-6-yl)-2-fluorophenyl)-3-fluoropropane-1-sulfonamide]: the IC50 lay within 100 to 1000 nM in assay [3], 100 to 1000 nM in assay [1], 1 to 100 nM in assay [2] and 1 to 100 nM in assay [4].
